Reference: patent publication US20050009739A1, “Formulation strategies in stabilizing peptides in organic solvents and in dried states” (priority 2002, published 2005)
Ends that are not written are not given here.

Tests used:
[1] = pH 4; cited from earlier work
[2] = Stability of PACAP 66 in DMSO at 40° C. in the presence of different metal salts (RP-HPLC recovery, CE purity); format: physicochemical; details: 2 mg/mL; for PACAP 66 degraded: 4 weeks, RP-HPLC
Protocol: Different metal salts, including ZnCl2, MgCl2, and CaCl2 were separately dissolved at 1 mM in DMSO, a non-aqueous organic solvent. PACAP 66 was then dissolved in these solutions at 2 mg/mL. The bulk solution was aliquoted into 2-mL screw-capped (with an o-ring) sterile polypropylene vials. These stability samples were incubated at 40° C. and analyzed at predetermined intervals.
More than 70% of PACAP 66 was degraded in DMSO in 4 weeks at 40° C. by RP-HPLC, but only approximately 10% of PACAP 66 was degraded in the presence of 1 mM ZnCl2 under the same storage conditions. […] The CE results were similar to the findings from the RP-HPLC analysis.

[3] = Stability of acidified, lyophilized PACAP 66 in DMSO at 40° C.; format: physicochemical; details: for PACAP 66 degraded: 2 weeks
Protocol: Several acid solutions were prepared at 0.1%, including HCl, trifluoro acetic acid (TFA), and H3PO4 and cooled to 2-8° C. The cold acid solutions were then mixed with PACAP 66 at a PACAP 66:acid molar ratio of 1:10. After mixing, the cold PACAP 66 solutions were immediately placed inside a precooled freeze-drier and were lyophilized. The lyophilized material was further equilibrated in a desiccator containing P2O5 for at least one day to absorb additional moisture from the lyophilized peptide. The acidified and dried material was then dissolved in DMSO at 2 mg/mL and stability was conducted as described in the upper section.
The recovery of HCl-acidified PACAP 66 at the end of a 2-week period was 97% by RP-HPLC. However, the recovery could be slightly overestimated, as the corresponding purity of PACAP 66 in the sample was only 89% by RP-HPLC.
We understand that peptides can be hydrolyzed readily under acidic conditions in an aqueous solution. […] In the acidification of PACAP 66, the pH of acidified PACAP 66 solution was measured to be 2.2 after addition of TFA. At this pH, PACAP 66 should be rapidly hydrolyzed.

[4] = Stability of PACAP 66 solution at 300 mg/mL in DMSO at 40° C.; format: physicochemical; details: 23 weeks
Source text: (§1) To test whether a metal salt would stabilize PACAP 66 at a high peptide concentration in an organic solvent, a high concentration of a metal salt would be required, assuming a fixed ratio of metal and peptide is needed for stabilization. A metal salt, however, has limited solubility in an organic solvent Therefore, a similar preparation method was adopted for sample preparation of peptide-metal mixtures at high concentrations, as described under Acidification and Lyophilization of PACAP 66, supra. Briefly, a metal salt and the peptide were first dissolved at a fixed molar ratio in an aqueous solution. The solution was then aliquoted in 3-mL glass vials at a fixed volume and lyophilized. Stability samples were prepared by adding a fixed amount of an organic solvent in the vial. The sample vials were then capped, sealed, and incubated at 40° C. Stability samples were first diluted to a reasonable concentration before analysis by RP-HPLC or CE. Similarly, a peptide suspension was prepared by mixing a proper amount of an organic solvent in a sample vial containing the lyophilized mixture and incubated at 40° C. Stability of solid PACAP 66 was evaluated directly by incubating the sample vial containing the lyophilized mixture at 40° C.
PACAP 66 in the sample was acidified in the absence and presence of ZnCl2. Approximately 70% of the peptide was degraded in the control sample after storage for 23 weeks, while approximately 20% was degraded in the acidified samples in the presence or absence of ZnCl2.

[5] = Stability of PACAP 66 solution at 20 mg/mL in 1-methyl-2-pyrrolinidone at 40° C.; format: physicochemical; details: acidified samples
Source text: as §1
PACAP 66 in the sample was acidified in the absence and presence of ZnCl2.

[6] = Stability of PACAP 66 suspension at 20 mg/mL in 2-propanol at 40° C.; format: physicochemical; details: suspension 20 mg/mL in 2-propanol
Source text: as §1

[7] = Stability of PACAP 66 in a lyophilized state at 40° C.; format: physicochemical
Source text: as §1

[8] = Stability of peptide in an aqueous solution; format: physicochemical
[9] = Solubility of peptide in organic solvents; format: physicochemical; details: some organic solvents

Substance	stability in an aqueous solution [1]	stabilizing effect compared with the control ([2]; 1 mM CaCl2)	stabilizing effect compared with the control ([2]; 1 mM MgCl2)	PACAP 66 degraded ([2]; 1 mM ZnCl2)	PACAP 66 degraded ([2]; control without metal salt)	PACAP 66 degraded ([3]; acidified (HCl, TFA or H3PO4) and lyophilized PACAP 66, DMSO 2 mg/mL)	relative stabilization effect by acids ([3]; acidified and lyophilized PACAP 66 in DMSO)	PACAP 66 degraded ([3]; unprocessed PACAP 66 (control), DMSO 2 mg/mL)	peptide degraded ([4]; acidified (HCl), absence of ZnCl2)	peptide degraded ([4]; acidified (HCl), presence of ZnCl2)	peptide degraded ([4]; control sample)	effect of addition of ZnCl2 on stability [5]	effect of addition of ZnCl2 on storage stability [6]	effect of acidification on stability during storage [7]	effect of addition of ZnCl2 on stability ([7]; acidified)	effect of different metals on stability ([8]; aqueous solution, 40° C., zinc, magnesium or calcium)	effect of zinc oxide on stability ([8]; aqueous solution, zinc oxide at 10 mM (FIG. 1))	stability in an aqueous environment ([8]; aqueous, 40° C. (FIG. 1))	solubility in organic solvents [9]
Secretin: a PACAP-like peptide	can be degraded easily																		
HSDAVFTDNYTRLRKQVAAKKYLQSIKNKRY [PACAP 66]		did not have any significant stabilizing effect	did not have any significant stabilizing effect	approximately 10%	More than 70%	less than 10%	HCl >TFA >H3PO4	More than 50%	approximately 20%	approximately 20%	Approximately 70%	seems to stabilize PACAP 66 to a higher degree	significantly improved the storage stability	significantly stabilized the peptide	seems to stabilize the peptide to a higher degree	does not improve its stability	did not stabilize	not stable	dissolved easily
